Data taken from patent US8895579B2, “Heterotricyclic AMPA receptor antagonists for treatment of epilepsy, pain, and other neurological disorders and diseases” (Northwestern University, priority 2010, dated 2014).
Read-outs that look alike come from different tables or passages of the source.

What was measured:
[1] = target: T1, recombinant homomeric GluA4 AMPA receptor (Rattus norvegicus, UniProt P19493); experiment: Whole-cell patch clamp of recombinant GluA4 receptors in HEK293-T/17 cells; format: cell-based; details: for inhibition at 30 µM: HEK293T/17, 30 μM
T1 construct: expressed in transfected cells; host or cells: HEK293-T/17 (CRL-11268)
T1 sequence (P19493 21-902 isoform P19493-2 limits assumed): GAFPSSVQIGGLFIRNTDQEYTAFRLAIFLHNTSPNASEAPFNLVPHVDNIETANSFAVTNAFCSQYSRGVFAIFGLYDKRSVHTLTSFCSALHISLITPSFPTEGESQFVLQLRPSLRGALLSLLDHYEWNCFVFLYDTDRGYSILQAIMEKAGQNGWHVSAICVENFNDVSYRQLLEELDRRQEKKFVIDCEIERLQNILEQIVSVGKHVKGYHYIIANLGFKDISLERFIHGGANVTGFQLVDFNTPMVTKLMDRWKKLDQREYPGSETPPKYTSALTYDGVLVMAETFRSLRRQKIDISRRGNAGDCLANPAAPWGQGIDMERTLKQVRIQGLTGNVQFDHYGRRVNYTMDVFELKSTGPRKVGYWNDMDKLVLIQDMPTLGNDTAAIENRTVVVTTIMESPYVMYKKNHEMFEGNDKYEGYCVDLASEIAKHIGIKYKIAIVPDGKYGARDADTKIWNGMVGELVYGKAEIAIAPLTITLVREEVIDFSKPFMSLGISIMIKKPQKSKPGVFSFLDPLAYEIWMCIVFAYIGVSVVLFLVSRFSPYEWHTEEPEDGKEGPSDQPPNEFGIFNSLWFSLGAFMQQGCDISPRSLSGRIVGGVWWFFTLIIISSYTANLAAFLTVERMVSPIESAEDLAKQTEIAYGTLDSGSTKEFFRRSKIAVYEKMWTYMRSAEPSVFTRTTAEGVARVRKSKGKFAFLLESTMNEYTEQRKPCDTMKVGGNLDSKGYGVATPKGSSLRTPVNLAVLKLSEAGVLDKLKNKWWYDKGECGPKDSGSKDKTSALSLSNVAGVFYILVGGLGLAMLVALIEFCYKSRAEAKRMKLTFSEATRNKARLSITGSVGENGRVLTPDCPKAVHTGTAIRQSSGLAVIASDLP
Procedure: (§1) Cell Culture and Transfection. Human embryonic kidney cells expressing T-antigen, clone 17 (HEK293-T/17) (CRL-11268) were cultured at 37° C. with 5% CO2 in DMEM, including 100 μg/mL penicillin, 100 μg/mL streptomycin, and 10% heat-inactivated fetal bovine serum. Cells were split twice per week. For transfection, HEK293-T/17 cells were plated at 3×10^4 cells/cm^2 for pharmacology experiments and 5×10^3 cells/cm^2 for physiology experiments in fresh medium 24 h prior to transfection. Cells were transfected with AMPA or KA receptor plasmid cDNAs using Mirus Trans-IT transfection reagent (Minus Bio Corporation, Madison, Wis.) at a ratio of 1 μg cDNA: 3 μL Trans-1T reagent and maintained in transfection medium overnight followed by a media change the next day. Transfected cells were maintained in this medium until the experiment was conducted (48-72 h total post transfection).
(§2) Electrophysiology. For analysis of recombinant receptors, HEK293-T/17 cells were co-transfected with 0.2 μg of iGluR cDNA and 0.05 μg of eGFP. For heterologous GluA1/GluA2 receptors, the GluA1:GluA2 cDNA ratio was 1:6. Two to three days post-transfection, eGFP-expressing cells were lifted from the cover slip and voltage clamped in whole cell mode. The internal solution contained (in mM) 30 CsF, 110 CsCl, 10 HEPES, 4 NaCl, 5 EGTA and 0.5 CaCl2 (pH 7.3), while the extracellular solution contained (in mM) 140 NaCl, 10 glucose, 10 Cs-HEPES, 3 KCl, 2 CaCl2 and 1 MgCl2 (pH 7.3). Borosilicate patch electrodes were pulled and fire polished to 2-3 MO resistance. Lifted cells were maintained in a laminar stream of extracellular solution from a triple-barreled flow pipe, which was rapidly translated using a piezoceramic bimorph for fast application of glutamate or kainate alone or in combination with various antagonists (the 10-90% rise time of glutamate-evoked currents was ˜1 ms). IKM compounds were applied for three minutes with analysis performed on the final one minute of drug application.
Statistical analysis. At least three separate experiments were performed for each assay. For data involving three or more groups, a one-way analysis of variance (ANOVA) was performed with a Tukey-Kramer post hoc test for comparison amongst the groups. For data involving two groups, an unpaired student's t-test was performed; if the standard deviations between the two groups were statistically significant, a Welsh correction was added. If the data involving three or more groups or data involving two groups where multiple treatments were performed on the same sample, a repeated measures ANOVA and paired t-test were used, respectively, for analysis of significance. Dose-inhibition response curves were fitted, with the maximum value constrained to 100 and the minimum value constrained to values greater than or equal to zero, using the following equation in order to calculate the IC50 values: Response=minimum+(maximum−minimum)/(1+(IC50^hill slope/dose^hillslope)) All calculations for statistical analysis were carried out with Graphpad Prism4 software (La Jolla, Calif.). Data are presented as mean±S.E.M. with statistical significance set at p<0.05.

[2] = target: T2, heteromeric GluA1/GluA2 AMPA receptor (Rattus norvegicus, UniProt P19490+P19491); experiment: Whole-cell patch clamp of recombinant GluA1/GluA2 receptors in HEK293-T/17 cells; format: cell-based
T2 construct: expressed in transfected cells; host or cells: HEK293-T/17 (CRL-11268)
T2 sequence (P19490 19-907 isoform P19490-2 limits assumed): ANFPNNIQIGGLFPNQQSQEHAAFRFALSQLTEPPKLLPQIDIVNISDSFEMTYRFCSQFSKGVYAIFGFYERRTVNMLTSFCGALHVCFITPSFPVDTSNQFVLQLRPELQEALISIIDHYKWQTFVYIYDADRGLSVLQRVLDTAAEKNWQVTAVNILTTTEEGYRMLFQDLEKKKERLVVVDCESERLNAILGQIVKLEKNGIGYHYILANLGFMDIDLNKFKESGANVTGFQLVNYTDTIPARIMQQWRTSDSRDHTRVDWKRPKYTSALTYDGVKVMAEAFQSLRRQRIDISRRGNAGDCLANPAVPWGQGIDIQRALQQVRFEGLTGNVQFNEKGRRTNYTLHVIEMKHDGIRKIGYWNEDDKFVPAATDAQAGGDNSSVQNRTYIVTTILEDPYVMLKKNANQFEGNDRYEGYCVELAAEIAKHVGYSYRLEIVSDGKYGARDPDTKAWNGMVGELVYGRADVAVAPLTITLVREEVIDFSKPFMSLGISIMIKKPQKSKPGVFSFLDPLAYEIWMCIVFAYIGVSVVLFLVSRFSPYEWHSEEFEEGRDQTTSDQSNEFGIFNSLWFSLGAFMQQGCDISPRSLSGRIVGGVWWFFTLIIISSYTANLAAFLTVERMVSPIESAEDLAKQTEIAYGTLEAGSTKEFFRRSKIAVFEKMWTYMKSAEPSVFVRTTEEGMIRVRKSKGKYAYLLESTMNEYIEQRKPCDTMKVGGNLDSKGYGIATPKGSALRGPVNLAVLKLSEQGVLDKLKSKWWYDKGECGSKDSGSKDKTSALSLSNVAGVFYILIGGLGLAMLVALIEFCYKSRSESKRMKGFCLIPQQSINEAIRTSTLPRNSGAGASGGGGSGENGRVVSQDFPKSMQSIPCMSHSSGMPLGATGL
T2 sequence (P19491 22-883 isoform P19491-2 limits assumed): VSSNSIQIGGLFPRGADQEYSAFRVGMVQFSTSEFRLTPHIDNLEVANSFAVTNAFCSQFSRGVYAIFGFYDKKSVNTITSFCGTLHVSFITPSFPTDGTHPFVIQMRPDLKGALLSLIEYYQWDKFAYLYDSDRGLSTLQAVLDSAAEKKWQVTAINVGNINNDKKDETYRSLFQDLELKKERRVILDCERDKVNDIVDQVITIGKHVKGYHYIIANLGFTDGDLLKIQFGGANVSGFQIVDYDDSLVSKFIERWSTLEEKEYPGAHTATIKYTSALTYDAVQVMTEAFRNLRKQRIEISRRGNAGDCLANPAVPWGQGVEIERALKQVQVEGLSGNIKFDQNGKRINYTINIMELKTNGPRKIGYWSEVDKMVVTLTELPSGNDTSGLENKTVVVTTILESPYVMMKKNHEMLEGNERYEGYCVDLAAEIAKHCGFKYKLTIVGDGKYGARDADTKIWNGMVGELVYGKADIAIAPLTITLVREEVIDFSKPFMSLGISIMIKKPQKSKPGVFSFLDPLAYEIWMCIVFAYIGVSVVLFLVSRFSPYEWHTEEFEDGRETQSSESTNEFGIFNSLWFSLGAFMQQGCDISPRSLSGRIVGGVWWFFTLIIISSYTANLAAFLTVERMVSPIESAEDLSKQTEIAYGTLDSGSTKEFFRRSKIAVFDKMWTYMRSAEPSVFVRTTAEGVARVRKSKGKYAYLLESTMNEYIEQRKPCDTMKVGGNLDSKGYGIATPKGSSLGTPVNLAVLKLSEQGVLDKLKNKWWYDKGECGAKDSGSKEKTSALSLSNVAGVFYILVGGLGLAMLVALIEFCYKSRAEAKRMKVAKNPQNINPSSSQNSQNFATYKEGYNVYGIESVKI
Procedure: as §1, §2
Statistical analysis. At least three separate experiments were performed for each assay. […]

SMILES: O=C(O)C[C@@]12O[C@H]3C=CCN[C@H]3C1CN[C@H]2C(=O)O (some centres unmarked) [IKM-159]
- inhibition at 30 µM ([1]; 50 μM KA, read-out: percent inhibition of kainate-evoked steady state GluA4 currents): 37 ± 4%
- inhibition at 30 µM ([1]; 100 μM glutamate, 100 μM cyclothiazide, read-out: percent inhibition of steady-state GluA4 currents): 30 ± 5%
- inhibition at 30 µM ([1]; 500 μM KA, read-out: percent inhibition of kainate-evoked steady state GluA4 currents): 21 ± 2%
- inhibition at 30 µM ([1]; 500 μM glutamate, read-out: percent inhibition of GluA4 non-equilibrium peak currents): 44 ± 8%
- inhibition at 30 µM ([1]; 10 mM glutamate, 100 μM cyclothiazide, read-out: percent inhibition of steady-state GluA4 currents): 7 ± 2%
- inhibition at 30 µM ([1]; 10 mM glutamate, peak current, read-out: reduction from control GluA4 peak glutamate current amplitude (percent inhibition)): 40 ± 4%
- remaining activity at 30 µM ([1]; HEK293T/17, 30 μM, 10 mM glutamate 100 ms, pre-applied at least one minute, read-out: GluA4 peak current as percent of control amplitude): 60 ± 4%
- IC50 ([1]; currents evoked by 10 mM glutamate): 60 ± 8 µM
- IC50 [2]: 26 ± 2 µM
- GluA1/GluA2 peak amplitude as percent of basal peak amplitude ([2]; 30 μM, 10 mM glutamate): 56±5%
- reduction in GluA1/GluA2 peak current amplitude ([2]; 30 μM, 10 mM glutamate): 44±5%
